5 molecules from BindingDB's records for doi:10.7270/Q27D2X8F (n/a, 1993) can be followed below.

Test [1] concerns the target T1, 5-hydroxytryptamine receptor 1A (Homo sapiens, UniProt P08908).
T1 sequence (P08908 whole entry): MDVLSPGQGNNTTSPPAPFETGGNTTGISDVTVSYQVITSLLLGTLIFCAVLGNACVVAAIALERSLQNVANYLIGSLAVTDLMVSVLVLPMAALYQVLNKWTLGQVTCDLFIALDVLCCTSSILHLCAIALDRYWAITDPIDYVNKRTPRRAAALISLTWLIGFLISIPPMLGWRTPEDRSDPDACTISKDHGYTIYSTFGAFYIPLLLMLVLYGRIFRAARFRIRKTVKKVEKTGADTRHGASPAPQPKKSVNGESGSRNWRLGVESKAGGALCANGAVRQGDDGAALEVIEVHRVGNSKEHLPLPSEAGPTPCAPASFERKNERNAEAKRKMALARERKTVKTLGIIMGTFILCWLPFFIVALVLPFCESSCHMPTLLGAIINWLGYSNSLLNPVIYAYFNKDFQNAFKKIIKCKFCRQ
In words: The compound was evaluated for its ability to displace [3H]-8-OH-DPAT from 5-hydroxytryptamine 1A receptor in cellular brain membranes.

Test [2] concerns the target 5-hydroxytryptamine receptor 1B (Homo sapiens, UniProt P28222). In words: The compound was evaluated for its ability to displace [3H]5-HT from 5-hydroxytryptamine 1B receptor in cellular brain membranes.
Test [3] deals with Serotonin 2 (5-HT2) receptor (Homo sapiens, UniProt P28223+P28335+P41595). In words: The compound was evaluated for its ability to displace [3H]ketanserin from 5-hydroxytryptamine 2 receptor in cellular brain membranes.
Chain of Serotonin 2 (5-HT2) receptor (P28223 whole entry): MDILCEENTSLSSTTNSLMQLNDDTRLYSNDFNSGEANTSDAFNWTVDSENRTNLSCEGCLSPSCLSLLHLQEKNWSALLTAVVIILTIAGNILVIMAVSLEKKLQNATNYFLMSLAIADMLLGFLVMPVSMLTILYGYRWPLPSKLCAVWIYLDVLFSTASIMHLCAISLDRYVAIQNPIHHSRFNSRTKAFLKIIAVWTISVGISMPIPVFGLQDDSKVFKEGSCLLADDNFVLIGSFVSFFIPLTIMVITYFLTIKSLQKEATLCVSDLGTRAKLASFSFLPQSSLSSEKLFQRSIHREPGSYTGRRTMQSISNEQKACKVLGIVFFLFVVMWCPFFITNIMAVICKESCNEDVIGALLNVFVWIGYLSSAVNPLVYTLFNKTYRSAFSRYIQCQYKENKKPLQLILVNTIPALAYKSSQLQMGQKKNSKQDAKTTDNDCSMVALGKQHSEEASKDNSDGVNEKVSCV
Chain of Serotonin 2 (5-HT2) receptor (P41595 whole entry): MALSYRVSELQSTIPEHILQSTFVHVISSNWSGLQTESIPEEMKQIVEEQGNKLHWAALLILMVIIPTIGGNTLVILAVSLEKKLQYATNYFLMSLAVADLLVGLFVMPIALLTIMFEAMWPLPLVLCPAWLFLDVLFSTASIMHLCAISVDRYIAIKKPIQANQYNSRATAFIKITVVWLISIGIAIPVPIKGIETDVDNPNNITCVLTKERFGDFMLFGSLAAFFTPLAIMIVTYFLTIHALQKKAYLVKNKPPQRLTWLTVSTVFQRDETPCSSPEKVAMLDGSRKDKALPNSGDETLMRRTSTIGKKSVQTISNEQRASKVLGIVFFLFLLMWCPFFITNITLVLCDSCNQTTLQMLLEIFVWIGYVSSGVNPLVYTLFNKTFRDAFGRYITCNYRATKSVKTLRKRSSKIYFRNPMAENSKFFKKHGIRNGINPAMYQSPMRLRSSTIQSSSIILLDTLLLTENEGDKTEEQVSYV
Chain of Serotonin 2 (5-HT2) receptor (P28335 whole entry): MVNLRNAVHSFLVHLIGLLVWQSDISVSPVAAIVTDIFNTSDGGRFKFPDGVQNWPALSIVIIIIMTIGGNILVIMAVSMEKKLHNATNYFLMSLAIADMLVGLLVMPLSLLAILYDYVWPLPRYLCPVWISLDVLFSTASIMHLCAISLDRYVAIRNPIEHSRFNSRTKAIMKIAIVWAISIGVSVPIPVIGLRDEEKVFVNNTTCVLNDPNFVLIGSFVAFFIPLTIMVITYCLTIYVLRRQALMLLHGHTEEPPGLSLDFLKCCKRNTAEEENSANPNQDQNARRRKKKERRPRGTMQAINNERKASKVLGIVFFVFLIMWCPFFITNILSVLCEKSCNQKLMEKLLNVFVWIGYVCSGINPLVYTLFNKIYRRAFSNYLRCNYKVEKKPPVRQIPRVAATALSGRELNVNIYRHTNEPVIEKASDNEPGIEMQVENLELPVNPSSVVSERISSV

Chain of 5-hydroxytryptamine receptor 1B (P28222 whole entry): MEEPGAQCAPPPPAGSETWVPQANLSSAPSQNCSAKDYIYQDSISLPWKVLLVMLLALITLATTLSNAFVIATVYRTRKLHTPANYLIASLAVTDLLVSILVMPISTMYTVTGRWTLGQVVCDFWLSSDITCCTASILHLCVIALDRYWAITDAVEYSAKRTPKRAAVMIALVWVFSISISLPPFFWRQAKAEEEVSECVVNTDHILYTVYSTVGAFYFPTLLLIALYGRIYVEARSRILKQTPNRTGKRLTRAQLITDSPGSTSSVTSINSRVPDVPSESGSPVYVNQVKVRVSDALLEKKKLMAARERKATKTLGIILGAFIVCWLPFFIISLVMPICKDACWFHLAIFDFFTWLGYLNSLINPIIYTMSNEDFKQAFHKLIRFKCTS

By IC50 is commonly meant the midpoint of a concentration-inhibition curve. Higher therefore signals lower potency. `CCCN(CCCCN1C(=O)CC2(CCCC2)CC1=O)C1COc2cccc(OC)c2C1` (stereo not given) [NSC_121851]: the IC50 was 0.2 nM in test [1], 5000 nM in test [2] and 0.01 µM in test [3].

Turning to `CCCN(CCCCNC(=O)c1cc(=O)oc2c3c4c(cc12)CCCN4CCC3)C1COc2cccc(OC)c2C1` (stereo not given), the IC50 was 0.3 nM in test [1], 9 nM in test [2] and 0.015 µM in test [3].

With `CCCN(CCCCNc1ccc([N+](=O)[O-])c2nonc12)C1COc2cccc(OC)c2C1` (stereo not given), the IC50 in test [1] was 100 nM; in test [2], 340 nM; in test [3], 18 µM.

For the molecule `CCCN(CCCCN1C(=O)c2ccccc2S1(=O)=O)C1COc2cccc(OC)c2C1` (stereo not given) [2-{4-[(5-Methoxy-chroman-3-yl)-propyl-amino]-butyl}-1,1-dioxo-1,2-dihydro-1lambda*6*-benzo[d]isothiazol-3-one; compound with oxalic acid], the results for the IC50 in test [1], in test [2] and in test [3] were 1 nM, 1000 nM and 10 µM, respectively.

Turning to `CCCN(CCCCN1C(=O)c2ccccc2C1=O)C1COc2cccc(OC)c2C1` (stereo not given) [2-{4-[(5-Methoxy-chroman-3-yl)-propyl-amino]-butyl}-isoindole-1,3-dione; compound with oxalic acid], the IC50 in test [1] turned out to be 50 nM; in test [2] it was 400 nM; in test [3], 30 µM.
